SMILES	melting point [°C]
O=C1CC2(CCCC2)C(=O)N1c1cc(Cc2n[nH]c(=O)c3ccccc23)ccc1F [Example 32, 2-[2-fluoro-5-(4-oxo-3,4-dihydrophthalazin-1-ylmethyl)phenyl]-2-azaspiro[4.4]nonane-1,3-dione]	215 to 220
O=C1C2CC2C(=O)N1c1cc(Cc2n[nH]c(=O)c3ccccc23)ccc1Cl (stereo not shown) [Example 41, 3-[2-chloro-5-(4-oxo-3,4-dihydrophthalazin-1-ylmethyl)phenyl]-3-azabicyclo[3.1.0]hexane-2,4-dione]	229 to 230
O=C1CC(c2ccccc2)C(=O)N1c1cc(Cc2n[nH]c(=O)c3ccccc23)ccc1Cl (stereo not shown) [Example 39, 1-[2-chloro-5-(4-oxo-3,4-dihydrophalazin-1-ylmethyl)phenyl]-3-phenylpyrrolidine-2,5-dione]	131 to 135
O=C(N[C@H]1CC(=O)N(c2cc(Cc3n[nH]c(=O)c4ccccc34)ccc2F)C1=O)OCc1ccccc1 [Example 35, (S)-3-benzyloxycarbonylamino-1-[2-fluoro-5-(4-oxo-3,4-dihydrophthalazin-1-ylmethyl)phenyl]pyrrolidine-2,5-dione]	121 to 127

The next lines start with the values.

melting point [°C]	SMILES
138 to 141	CCCCC/C=C/CC1CC(=O)N(c2cc(Cc3n[nH]c(=O)c4ccccc34)ccc2F)C1=O (stereo not shown) [Example 28, 1-[2-fluoro-5-(4-oxo-3,4-dihydrophthalazin-1-ylmethyl)phenyl]-3-oct-2-enylpyrrolidine-2,5-dione]
146 to 149	CCC/C=C/CC1CC(=O)N(c2cc(Cc3n[nH]c(=O)c4ccccc34)ccc2F)C1=O (stereo not shown) [Example 29, 1-[2-fluoro-5-(4-oxo-3,4-dihydrophthalazin-1-ylmethyl)phenyl]-3-hex-2-enylpyrrolidine-2,5-dione]
146 to 149	CCCCCC/C=C/CC1CC(=O)N(c2cc(Cc3n[nH]c(=O)c4ccccc34)ccc2F)C1=O (stereo not shown) [Example 30, 1-[2-Fluoro-5-(4-oxo-3,4-dihydrophthalazin-1-ylmethyl)phenyl]-3-non-2-enylpyrrolidine-2,5-dione]
